Experimental data published in US20150065421A1, “BASAL INSULIN THERAPY” (SANOFI, priority 2012, published 2015).

Assays:
[1] = system: people at high risk for vascular disease with either IFG, IGT, or early type 2 diabetes; assay: ORIGIN trial: hypoglycemia, weight change and glargine adherence; type: in vivo, human
Source text: Participants were asked to self-administer daily subcutaneous saline injections and to check their capillary glucose levels during a 10 day run-in period. Adherent participants were then provided with lifestyle advice and randomly allocated to either insulin glargine (Lantus™) or standard approaches to glycaemic control. Participants allocated to insulin glargine who were also taking a thiazolidinedione stopped that medication at the time of randomization; otherwise the insulin glargine was added to their glycemic regimen. These participants were instructed to inject insulin glargine in the evening, starting at 2, 4 or 6 units (depending on their initial FPG) and to increase the dose at least once per week targeting a self-measured FPG level ≦5.3 mmol/l (95 mg/dl) and ≧4 mmol/l (72 mg/dl). […] If participants developed uncontrolled hyperglycemia, investigators were permitted to add rapid-acting insulin. No other glucose-lowering medication could be added or increased. FPG levels were measured in the local laboratory at every visit and the results were regularly reviewed along with the dose of insulin to ensure that insulin was being effectively trirated. People not diagnosed with diabetes by the time of the penultimate study visit down-titrated insulin glargine by 10 units per day and stopped any metformin that was prescribed.
Outcomes and other data were collected at scheduled study visits at 0.5, 1, 2, and 4 months after randomization and every 4 months thereafter. Weight, waist and hip circumference were measured annually. HbA1c levels were assayed in local laboratories at every visit for the first year and then annually in people without diabetes and every 4 months for people with diabetes. A first morning urine collection was sent centrally and assayed for creatinine and albumin at baseline, 2 yrs and study end.
(§1) There were 2 co-primary composite CV outcomes. The first was CV death, non-fatal MI or non-fatal stroke, and the second was a composite of any of these events or a revascularization procedure or hospitalization for heart failure. Secondary outcomes included a composite microvascular outcome comprising a doubling of serum creatinine from baseline, progression of albuminuria category from normoalbuminuria or microalbuminuria to microalbuminuria or overt nephropathy, renal replacement therapy, renal death, retinal photocoagulation or vitrectomy for retinopathy. They also included new type 2 diabetes developing by the time of the 1st post-trial oral glucose tolerance test in participants without baseline diabetes, and all-cause mortality. Other outcomes included incident cancers, CV hospitalizations, and angina. Cardiovascular and cancer outcomes were reviewed by adjudicators masked to treatment allocation. Episodes of hypoglycaemia since the prior visit were recorded at each visit. Symptomatic hypoglycemia was classified as confirmed if a concomitant recorded capillary glucose level was <3 mmol/L (54 mg/dL). Severe hypoglycemia was defined as hypoglycemia that required assistance plus either prompt recovery with glucose or glucagon or a documented capillary glucose ≦2.0 (36 mg/dL). New diabetes was diagnosed if 2 consecutive FPG levels within a 4-month period were ≧7 mM (126 mg/dL) during the trial; a diagnosis of diabetes was made by a physician and a pharmacologic antidiabetic agent was being taken and there was evidence of either a FPG ≧7 mM (126 mg/dL) or any glucose value ≧11.1 mM (200 mg/dL); either 1 or more capillary glucose levels were ≧11.1 mM (200 mg/dl) and a lab-measured FPG was ≧7 mmol/l (126 mg/dl) or a lab measured random glucose level was ≧11.1 mM (200 mg/dl) during down-titration of glargine insulin; or any FPG was ≧7 mM (126 mg/dl) or 2 hour plasma glucose was ≧11.1 mM (200 mg/dl) during the first oral glucose tolerance test.

[2] = system: people at high risk for vascular disease with either IFG, IGT, or early type 2 diabetes; assay: ORIGIN trial: microvascular outcomes; type: in vivo, human
Source text: The composite microvascular outcome will be met by the development of any of the following: • Doubling of serum creatinine from study baseline (screening value) • Albuminuria progression, defined as a change from normoalbuminuria to either microalbuminuria or clinical proteinuria, or from microalbuminuria to clinical proteinuria using the definitions in the attached table.
• Requirement for renal replacement therapy (eg, dialysis, renal transplant), or death due to renal failure • Use of retinal photocoagulation or vitrectomy for diabetic retinopathy, including macular edema
as §1
The microvascular outcome was a composite of: laser surgery or vitrectomy or blindness for diabetic retinopathy; development of renal death or the need for renal replacement treatment (dialysis or transplantation); doubling of serum creatinine; or progression from lesser to greater severity of microalbuminuria. The last 2 components are laboratory-based—the others are “clinical” microvascular outcomes.

[3] = cited from earlier work
[4] = system: people at high risk for vascular disease with either IFG, IGT, or early type 2 diabetes; assay: ORIGIN trial: blood triglyceride and cholesterol change; type: in vivo, human; conditions: glargine group
[5] = patients with a history of atrial fibrillation at baseline

(Gly A21) Arg (B31) Arg (B32) human insulin [insulin glargine]
more severe hypoglycemia episodes than standard care ([1]; absolute risk difference): approximately 0.7 per 100 person-years | more suspected or confirmed hypoglycemia episodes than standard care ([1]; absolute risk difference): ~11 per 100 person-years | annual incidence of severe hypoglycemia ([1]; basal insulin in ORIGIN): 1.00% | Reason Stopped: N Hyperglycemia (%), Ever Off ([1]; first time off): 4 (0.15) N (%) | Reason Stopped: N Hypoglycemia (%), Ever Off ([1]; first time off): 218 (8.2) N (%) | Reason Stopped: N Wt Gain (%), Ever Off ([1]; first time off): 4 (0.15) N (%) | risk of hypoglycemia relative to standard care participants ([1]; higher): approximately 3 fold | Any Symptomatic Hypoglycemia, Mean Number of Episodes/yr ([1]; in vivo): 2.6 (4.1) Episodes/yr | Any Symptomatic Hypoglycemia, No Episodes During Follow-up (%) ([1]; in vivo): 2691 (43.0) N (%) | Confirmed Symptomatic Hypoglycemia, Mean Number of Episodes/yr ([1]; in vivo): 1.3 (2.3) Episodes/yr | No Confirmed Episodes During follow-up (%) ([1]; in vivo): 3652 (58.3) N (%) | incidence of the first episode of any (confirmed or unconfirmed) hypoglycemia ([1]; insulin glargine group): 16.73 per 100 person-years | mean weight gain ([1]; insulin glargine group): 1.6 kg | participants without any episode of symptomatic hypoglycemia during the entire trial (number) ([1]; insulin glargine group): 2691 participants | incidence of the first episode of nonsevere symptomatic hypoglycemia confirmed by a self-measured glucose level 3 mmol/l (54 mg/dl) ([1]; insulin glargine group, P<0.001): 9.81 per 100 person-years | incidence of the first episode of severe hypoglycemia ([1]; insulin glargine group, P<0.001 vs standard care): 1.00 per 100 person-years | participants without any episode of symptomatic hypoglycemia during the entire trial (percent) ([1]; insulin glargine group, median 6.2 years): 43% | Reason Stopped: N Hyperglycemia (%), Permanently Off ([1]; last time off and stayed off): 2 (0.2) N (%) | Reason Stopped: N Hypoglycemia (%), Permanently Off ([1]; last time off and stayed off): 42 (4.0) N (%) | Reason Stopped: N Wt Gain (%), Permanently Off ([1]; last time off and stayed off): 4 (0.4) N (%) | Severe Hypoglycemia, Total Episodes During Follow-up ([1]; median follow-up 6.2 years): 457 | Any Symptomatic Hypoglycemia, ≧1 Episode (N/100py) ([1]; nonsevere): 3573 (16.73) N/100py | Confirmed Symptomatic Hypoglycemia, ≧1 Confirmed Episode (N/100py) ([1]; nonsevere, self-measured glucose ≦3 mmol/l (54 mg/dl)): 2612 (9.81) N/100py | Severe Hypoglycemia, ≧1 Episode (N/100py) ([1]; participants (rate per 100 person-years), P<0.001 vs standard care): 359 (1.00) N/100py | 1 or more nonsevere hypoglycemic episodes confirmed by glucose <3 mmol/l (<54 mg/dl) ([1]; people with diabetes at enrollment): 10.5 per 100 person-years | 1 or more nonsevere hypoglycemic episodes confirmed by glucose <3 mmol/l (<54 mg/dl) ([1]; people without diabetes at enrollment): 5.7 per 100 person-years | Albumin Prog, N (%) ([2]; glargine group): 1154 | Albumin Prog, Rate ([2]; glargine group): 3.3 | Clin Microvasc, N (%) ([2]; glargine group): 190 | Clin Microvasc, Rate ([2]; glargine group): 0.5 | Double Cr, N (%) ([2]; glargine group): 94 | Double Cr, Rate ([2]; glargine group): 0.25 | Laser/Vitrect, N (%) ([2]; glargine group): 79 | Laser/Vitrect, Rate ([2]; glargine group): 0.22 | Microvascular, N (%) ([2]; glargine group): 1280 | Microvascular, Rate ([2]; glargine group): 3.7 | Renal Failure, N (%) ([2]; glargine group): 36 | Renal Failure, Rate ([2]; glargine group): 0.1 | Laser/Vitrect, HR (95% CI) ([2]; glargine vs standard, P 0.016): 0.59 (0.38, 0.91) | Clin Microvasc, HR (95% CI) ([2]; glargine vs standard, P 0.038): 0.74 (0.56, 0.98) | Microvascular, HR (95% CI) ([2]; glargine vs standard, P 0.066): 0.90 (0.81, 1.01) | Double Cr, HR (95% CI) ([2]; glargine vs standard, P 0.09): 0.70 (0.46, 1.06) | Albumin Prog, HR (95% CI) ([2]; glargine vs standard, P 0.17): 0.92 (0.82, 1.04) | Renal Failure, HR (95% CI) ([2]; glargine vs standard, P 0.46): 1.27 (0.67, 2.39) | microvascular outcomes, difference to standard care ([2]; insulin glargine vs standard care): no statistically significant difference | RR for Clinical Microvascular outcomes (non-laboratory-based) [2, 5]: 0.42 (0.19-0.91) | RR for microvascular outcome [2, 5]: 0.74 (0.55-0.98) | relative risk (RR) for microvascular outcome ([2]; patients with baseline A1c<6.4%, not significant): 1.08 | relative risk (RR) for microvascular outcome ([2]; patients with baseline A1c≧6.4%, statistically significant): 0.88 (0.79-0.98) | mean duration of action ([3]; in vivo): approximately 20 hours | duration of glucose lowering effect ([3]; smooth, without a definite peak): 24 h | change of triglyceride concentration in the blood ([4]; P<0.001 vs standard care): −0.21 (0.03) | Total cholesterol change from baseline to end-of-study ([4]; p 0.044 vs standard care): -0.41 mmol/L
